This note sets out measurements from patent EP0492136A2, “Retroviral protease inhibitors derived from 3-chloro-2-chloromethyl-1-propene” (AMERICAN CYANAMID COMPANY, priority 1990, dated 1992).

pIC50: −log10 of the molar value. Bounds are passed on as bounds.

In test [1] the test system is HTLV-IIIB strain of HIV-1. Kind of test: anti-HIV-1 activity in H9 based tissue culture, supernatant p24 antigen. Format: cell-based. The conditions noted are these: for inhibition at 0.2 µg/mL / inhibition at 2 µg/mL / inhibition at 20 µg/mL: Human immunodeficiency virus 1, IIIB, read-out: % Inhibition p24; for % Inhibition p24: H9 culture, relative to infected control cultures. How it is done:
Compounds are also tested for their ability to act as anti-HIV-1 compounds in tissue culture. The tests are performed in H9 based tissue culture challenged with HTLV-IIIB strain of HIV-1. The assay consists of evaluating the percent inhibition of supernatent p24 antigen concentrations relative to infected control cultures, as well as percent viable cells at 20 µg/ml in uninfected cells.

The target in test [2] is T1, HIV-1 protease (Human immunodeficiency virus type 1 group M subtype B, UniProt P04585).
T1 construct: HIV-1 protease is available for purchase from Medigenics; purchased Medigenics, 701 Mercy Rd., Suite 420, Omaha, Nebraska 68106
Kind of test: in vitro inhibition of HIV-1 protease (octapeptide substrate cleavage, HPLC). The class given is biochemical. The conditions noted are these: substrate H-Val-Ser-Gln-Asn-Tyr-Pro-Ile-Val-OH. Here is the method: HIV-1 protease is available for purchase from Medigenics, 701 Mercy Rd., Suite 420, Omaha, Nebraska 68106. Protease activity is assayed using the octapeptide H-Val-Ser-Gln-Asn-Tyr-Pro-Ile-Val-OH as the substrate. Cleavage of the substrate is quantitated by measuring the production of H-Val-Ser-Gln-Asn-Tyr-OH by HPLC analysis by the method described by Tomaselli et al., (cited previously).

Test [3] deals with HIV-1 strain IIIB. Kind of test: inhibition of growth of HIV-1 in MT-2 cells, CPE (cell death) measured with MTT dye. To be noted: T lymphoid MT-2 cell lines, after 5 days; for inhibition at 2.5 µg/mL / inhibition at 0.625 µg/mL: Human immunodeficiency virus 1, IIIB, MT2, 120 h, read-out: % Inhibition at Concentration. The class given is cell-based. An excerpt: In Table 3 data is shown for the ability of these compounds to inhibit growth of HIV-1 strain IIIB in T lymphoid MT-2 cell lines. The endpoint of these experiments after 5 days is CPE (cell death) measured with the metabolic MTT dye.

For the compound `O=C(NC1CCCCC1)[C@H](Cc1ccccc1)CC(O)C[C@@H](Cc1ccccc1)C(=O)NC1CCCCC1` [Example 330, [R-(R*,R*)]-N,N'dicyclohexyl-4-hydroxy-2,6-bis(phenylmethyl) heptanediamide], in test [1], the inhibition at 0.2 µg/mL is 0%, the inhibition at 2 µg/mL was determined as 0% and the inhibition at 20 µg/mL was found to be 0%. For the same compound, the negative logarithm of the IC50 (pIC50) in test [2] is 7.00.
Take `CCOC(=O)CN(Cc1ccccc1)CC(O)(CO)CN(CC(=O)NC(C)(C)C)Cc1ccccc1` (stereo not drawn) [Example 54]: the pIC50 in test [2] was 4.00.
On the same count and under the same terms, for `CC(C)(C)NC(=O)C(Cc1ccccc1)CC(O)CC(Cc1ccccc1)C(=O)NC(C)(C)C` (stereo not drawn) [Example 36] the value was 7.00.
Turning to `O=C(Cc1ccccn1)NC1CCCCC1NC(=O)C(Cc1ccccc1)CC(O)CC(Cc1ccccc1)C(=O)NC1CCCCC1NC(=O)Cc1ccccn1` (stereo not drawn) [Example 327, [1S-[1α[2R*,6R*,7(1R*,2R*)],2β]]-4-Hydroxy-2,6-bis(phenylmethyl)-N,N'-bis[[((2-pyridyl)acetyl)amino]cyclohexyl]-heptanediamde], the “% Inhibition at Concentration” value in test [3] (2.5 µg/ml) and in test [3] (.625 µg/ml) was 3.2% throughout. This compound also showed a negative-log IC50 (pIC50) in test [2] of 7.00.
Regarding `CC(C)(C)NC(=O)CN(Cc1ccccc1)CC(O)(CO)CN(CC(=O)NC(C)(C)C)Cc1ccccc1` [Example 52], in test [1], the inhibition at 0.2 µg/mL was 0%, the inhibition at 2 µg/mL is 0% and the inhibition at 20 µg/mL is 90%. Moreover, the negative logarithm of the IC50 (pIC50) in test [2] is 5.30.
In the case of `COC(=O)[C@H](Cc1ccccc1)NC(=O)[C@@H](NC(=O)[C@H](Cc1ccccc1)CC(O)C[C@@H](Cc1ccccc1)C(=O)N[C@H](C(=O)N[C@@H](Cc1ccccc1)C(=O)OC)C(C)C)C(C)C` [Example 110, [R-(R*,R*)]-N^ω,N^ω'-(2,6-Bis(phenylmethyl)-4-hydroxy-1,7-dioxo-1,7-heptanediyl)bis[N-L-valyl-L-phenylalanine] dimethyl ester], in test [3] (2.5 µg/ml), the inhibition at 2.5 µg/mL came to 58.7%. Besides, the inhibition at 0.625 µg/mL in test [3] (.625 µg/ml) worked out at 16.6%. In test [2], this compound showed a negative-log IC50 (pIC50) of 8.00.
For `CCOC(=O)CN(Cc1ccccc1)CC(O)(CO)CN(CC(=O)OCC)Cc1ccccc1` [Example 55], in test [1], the inhibition at 0.2 µg/mL was determined as 0%, the inhibition at 2 µg/mL amounted to 0% and the inhibition at 20 µg/mL was found to be 0%. In test [2], the pIC50 was 4.00.
With `CCC(C)C(NC(=O)C(Cc1ccccc1)CC(O)CC(Cc1ccccc1)C(=O)NC(C(=O)NCc1nc2ccccc2[nH]1)C(C)CC)C(=O)NCc1nc2ccccc2[nH]1` (stereo not drawn) [Example 329, [1S-[1R*[2S*,6S*,7(1R*,2R*)],2R*]]-4-Hydroxy-2,6-bis(phenylmethyl)-N,N'-bis[1-[[(1-H-benzimidazoyl-2ylmethyl)amino]carbonyl]-2-methylbutyl]heptanediamide], the inhibition at 2.5 µg/mL in test [3] (2.5 µg/ml) is 97.9%. In addition, the inhibition at 0.625 µg/mL in test [3] (.625 µg/ml) was found to be 92.5%. The compound further gave a pIC50 in test [2] of 8.30.
In test [2], `CC(C)(C)NC(=O)CN(Cc1ccccc1)CC(O)CN(CC(=O)NC(C)(C)C)Cc1ccccc1` [Example 53] gave a pIC50 of 4.00.
As for `O=C(NC1CCCC1)C(Cc1ccccc1)CC(O)CC(Cc1ccccc1)C(=O)NC1CCCC1` (stereo not drawn) [Example 39], the negative-log IC50 (pIC50) in test [2] was 8.00.
For `CC(C)(C)NC(=O)C1CCCCN1CC(O)(CO)CN1CCCCC1C(=O)NC(C)(C)C` (single isomer, unassigned) [58 (Isomer B)], in test [2], the pIC50 is 4.00.
As to `CC(C)(C)NC(=O)C1CCCCN1CC(O)(CO)CN1CCCCC1C(=O)NC(C)(C)C` (single isomer, unassigned) [58 (Isomer A)], in test [2], the negative logarithm of the IC50 (pIC50) was less than 3.00.
Same read-out and setting: in the case of `O=C(NC1CCCCC1Nc1cccnc1)C(Cc1ccccc1)CC(O)CC(Cc1ccccc1)C(=O)NC1CCCCC1Nc1cccnc1` (stereo not drawn) [Example 324, [1S-[1α[2R*,6R*,7(1R*,2R*)],2β]]-4-Hydroxy-2,6-bis(phenylmethyl)-N,N'-bis[[(3-pyridyl)amino]cyclohexyl]-heptanediamde] it was 7.00.
Turning to `CC(C)C(NC(=O)C(Cc1ccccc1)CC(O)CC(Cc1ccccc1)C(=O)NC(C(=O)NCc1nc2ccccc2[nH]1)C(C)C)C(=O)NCc1nc2ccccc2[nH]1` (stereo not drawn) [Example 328, [1S-[1R*[2S*,6S*,7R*],2R*]]-4-Hydroxy-2,6-bis(phenylmethyl)-N,N'-bis[1-[[(1-H-benzimidazoyl-2ylmethyl)amino]carbonyl]-2-methylpropyl]-heptanediamide], in test [3] (2.5 µg/ml), the inhibition at 2.5 µg/mL was found to be 72.8%. The inhibition at 0.625 µg/mL in test [3] (.625 µg/ml) amounted to 17.1%. Besides, the pIC50 in test [2] is 8.30.
Consider `O=C(NC1CCCCC1Nc1ccncc1)C(Cc1ccccc1)CC(O)CC(Cc1ccccc1)C(=O)NC1CCCCC1Nc1ccncc1` (stereo not drawn) [Example 323, [1S-[1α[2R*,6R*,7(1R*,2R*)],2β]]-4-Hydroxy-2,6-bis(phenylmethyl)-N,N'-bis[[(4-pyridyl)amino]cyclohexyl]-heptanediamde], for which the “% Inhibition at Concentration” value is recorded as 3.1% in test [3] (2.5 µg/ml) and 0.2% in test [3] (.625 µg/ml). The compound also gave a negative-log IC50 (pIC50) in test [2] of 7.00.
As to `CC(C)CNC(=O)[C@H](Cc1ccccc1)CC(O)C[C@@H](Cc1ccccc1)C(=O)NCC(C)C` (relative stereo) [Example 331, [R,(R*,R*)-N,N'-4-hydroxy-N,N'-bis(2-methylpropyl)-2,6-bis(phenylmethyl)heptanediamide], in test [2], the pIC50 is 6.30.
Still for that read-out and setting: in the case of `CC(C)(C)OC(=O)NC1CCCCC1NC(=O)C(Cc1ccccc1)CC(O)CC(Cc1ccccc1)C(=O)NC1CCCCC1NC(=O)OC(C)(C)C` (stereo not drawn) [Example 46] it was 6.10.
Same read-out and setting: for `CCOC(=O)CN(CC1CCCCC1)CC(O)(CO)CN(CC(=O)OCC)CC1CCCCC1` [Example 60] the value was 4.30; for `O=C(NCC1CCCCC1)C(Cc1ccccc1)CC(O)CC(Cc1ccccc1)C(=O)NCC1CCCCC1` (stereo not drawn) [Example 42], 4.30.
Consider `CC(=O)NC1CCCCC1NC(=O)C(Cc1ccccc1)CC(O)CC(Cc1ccccc1)C(=O)NC1CCCCC1NC(C)=O` (stereo not drawn) [Example 326, [1S-[1α[2R*,6R*,7(1R*,2R*)],2β]]-4-Hydroxy-2,6-bis(phenylmethyl)-N,N'-bis[[(2-acetyl)amino]cyclohexyl]-heptanediamde], for which the “% Inhibition p24” value in test [1] (2 µg/ml) stood at 0%; in test [1] (20 µg/ml), 3%; in test [1] (.2 µg/ml) it was 0%. In test [2], the negative logarithm of the IC50 (pIC50) was 7.00.
For `O=C(NC1CCCCC1Nc1ccccn1)C(Cc1ccccc1)CC(O)CC(Cc1ccccc1)C(=O)NC1CCCCC1Nc1ccccn1` (stereo not drawn) [Example 325, [1S-[1α[2R*,6R*,7(1R*,2R*)],2β]]-4-Hydroxy-2,6-bis(phenylmethyl)-N,N'-bis[[(2-pyridyl)amino]cyclohexyl]-heptanediamde], the “% Inhibition at Concentration” value was determined as 3.8% in test [3] (2.5 µg/ml) and 0.0% in test [3] (.625 µg/ml). Moreover, the pIC50 in test [2] was 7.00.
